Measurements as given in patent US20220273617A1, “ANTI-CANCER, ANTI-INFLAMMATORY AND IMMUNOMODULATORY ACTIVITY OF R-CARVEDILOL AND METHODS OF USE” (priority 2021, published 2022).
“Also recorded” adds a separate entry of the source. Values belong to the compound of their own block, whether it stands above or below them.

How the values were obtained:
JB6 [1] = settings: among 16 β-blockers examined (Cleveland K H, 2019); cited from earlier work
B(a)P-induced lung tumor = assay: Long term B(a)P-induced lung carcinogenesis in A/J mice; assay type: in vivo; settings: for tumor incidence: B(a)P only 100%
Procedure: To examine the chemopreventive efficacy of carvedilol, we used an established lung carcinogenesis model in A/J mice induced by B(a)P. Two drug doses were examined: 20 mg/kg (H) and 3.2 mg/kg (L). The mice were randomly divided by body weight into seven groups at the beginning of the experiments. To induce lung tumor, mice were given a single intraperitoneal (i.p.) injection of B(a)P at 100 mg/kg body weight in 0.2 ml tricaprylin. The following are treatment groups: (1) vehicle control, n=8; (2) B(a)P only, n=9; (3) B(a)P+gefitinib 400 mg/kg, weekly oral gavage, positive control, n=10; (4) B(a)P+carvedilol 20 mg/kg drinking water, n=9; (5) B(a)P+carvedilol 3.2 mg/kg drinking water, n=8; (6) B(a)P+R-carvedilol 20 mg/kg drinking water, n=9; (7) B(a)P+R-carvedilol 3.2 mg/kg drinking water, n=10. The mice began the drug treatments 3 weeks before B(a)P treatment and terminated at 23 weeks after B(a)P treatment. […] Tumor multiplicity was determined by counting surface tumors in fixed lung under a dissecting microscope. […] The tumor incidence for gefitinib group was 70%. The tumor incidence was 89% and 50% for high and low dose carvedilol, respectively. The tumor incidence was 67% and 70% for high and low dose R-carvedilol, respectively.

B16-F10 tumor = B16-F10 tumor bearing C57BL/6 mice; assay type: in vivo; settings: topical daily
Procedure: Comparison of the efficacy of free drug and T-CAR (day 14). One day after tumor inoculation (two tumors per mouse, mice received free drug or T-CAR daily.
One day after tumor inoculation (one per mouse), mice received free drug or T-CAR daily, 200 μg RMP1-14 twice a week, or combination.
A: group 1, control; B: group 4, T-CAR+RMP1-14. Tumor collected at day 20 after inoculation.
Tumor collected at day 20 after inoculation.
The carvedilol loaded transfersome, T-CAR, was evaluated in vitro and in vivo on melanoma growth. […] To examine the in vivo activity of T-CAR, in C57BL/6 mice bearing the B16-F10 tumor, the T-CAR gel as a topical monotherapy was examined. The efficacy of T-CAR was compared with free drug dissolved in acetone in male mice bearing B16-F10 (two tumors inoculated in each mouse). […] Second study examined efficacy of topical T-CAR combined with anti-PD-1 (RMP1-14, 200 μg per mouse, i.p. twice per week) (one tumor was inoculated in each mouse).

[2] = Systolic blood pressure of mice, noninvasive tail-cuff system; assay type: in vivo; settings: 32 mg/kg/day
Procedure: SKH-1 mice were given racemic carvedilol or R-carvedilol in drinking water for two weeks (32 mg/kg/day). Blood pressure was examined in mice utilizing a Kent CODATM noninvasive tail-cuff system.

[3] = tested on: UV induced skin carcinogenesis; assay: Chronic UV induced skin carcinogenesis model; assay type: in vivo, mice; settings: for delay in tumor formation compared to UV only controls: topical, chronic UV
[4] = Ex vivo permeation across rat skin, Franz diffusion cells; assay type: in vitro ADME; settings: for permeation: rat, 200 μg/mL
Procedure: Instead of nanoparticle-based topical delivery, the present inventors have explored other methods of skin delivery of drugs. They investigated the effects of natural penetration enhancers on the ex vivo permeation of carvedilol across rat skin. […] The drug formulations containing carvedilol or R-carvedilol (200 μg/mL) (1 mL) was loaded on Franz diffusion cells using excised rat dorsal skin (with hair removed). […] D-limonene is isolated from orange peel, and is a cheap and safe option to delivery carvedilol (same for R-carvedilol) for skin cancer prevention. D-limonene is present in many skin commercial products such as perfumes and essential oils. Therefore, this invention provides another novel approach of making skin targeting formulation for both carvedilol and R-carvedilol. This approach of making skin formulation is not only safe but also easier to scale up to industry level for making large amount.

[5] = tested on: UV-induced immunosuppression; assay: UV-induced suppression of contact hypersensitivity (CHS) to DNFB; assay type: in vivo, SKH-1 hairless mice; settings: single dose i.p. 2 h before UV 224 mJ/cm^2; carvedilol 1 and 10 mg/kg, R-carvedilol 10 mg/kg
Procedure: Mice were treated with NS398, CAR or R-CAR (L: 1 mg/kg; H: 10 mg/kg) i.p. 2 hr before UV exposure (224 mJ/cm^2). 24 h after, mice were sensitized with DNFB on back. After 7 days, the right ears were challenged with DNFB. 24 h after, 5 mm punch biopsies were obtained from both ears and weighed. The data are the mean±SE difference in ear biopsy weights (right-left) from n=5 mice (male). *: P<0.05; **: P<0.01.
The data listed are the mean±SE difference in ear biopsy weights (Right-Left) from n=5 mice (male). *: P<0.05; **:P<0.01.
Immunosuppression induced by UV radiation is commonly investigated using the contact hypersensitivity (CHS) response to contact allergens such as the hapten dinitrofluorobenzene (DNFB). […] Thus, carvedilol's skin cancer preventive activity may be partly attributed to its inhibitory effects on UV-induced immunosuppression.
The mice were pretreated with single dose of R-carvedilol (10 mg/kg, i.p.) two hours before UV radiation, and were subject to UV exposure. […] Thus, R-carvedilol, although not a β-blocker, similarly reverses UV-induced immunosuppression.
CHS assay was used to evaluate the effects of a topical delivery system of carvedilol developed by us, named “T-CAR”, on UV-induced immunosuppression. […]

[6] = tested on: B(a)P-induced lung toxicity; assay: Short term single dose B(a)P-induced lung toxicity in mice; assay type: in vivo, CD1/IGS mice; settings: for plasma LDH levels / plasma MDA levels (LPO): B(a)P 125 mg/kg on day 7; for protection against B(a)P-induced histological changes and COX-2 expression: oral, compared with racemic carvedilol
Description: Chronic exposure to carcinogens that are present in tobacco smoking or air pollution is a well-known cause of lung cancer. One of the most important strategies to manage lung cancer is chemoprevention, which uses synthetic or natural products to block or reverse lung cancer initiation, promotion, and progression. Benzo(a)pyrene (B(a)P), a polycyclic aromatic hydrocarbon, is a pro-carcinogen ubiquitously present as pollutants in the environment. It is mostly produced during cigarette smoking and is present in automobile exhausts, and causes lung toxicity and lung cancer after metabolic activation. A single dose B(a)P-induced lung toxicity study in mice was used to evaluate the protective effects of carvedilol. In male CD1/IGS mice, carvedilol was orally administered (20 mg/kg body weight) once a day for 7 days. The mice were then treated with a single dose B(a)P via oral gavage (125 mg/kg body weight) on day 7, 30 min after the drug treatment. Mice were sacrificed 24 hours after B(a)P treatment. As expected, B(a)P increased the plasma levels of lactate dehydrogenase (LDH) and Malondialdehyde (MDA) for lipid peroxides (LPO).

[7] = orally administered; cited from earlier work
4T1 = assay: Triple negative breast tumor 4T1 in BalB/C mice; assay type: in vivo; settings: for tumor growth: 20 mg/kg/day in drinking water from two weeks before inoculation, monotherapy; for efficacy in combination with anti-PD-1 therapy: same 4T1 model, combined with anti-PD-1
Procedure: To investigate the effect of carvedilol and R-carvedilol on breast cancer growth, the BalB/C mice were treated with the drugs (20 mg/kg/day) in drinking water for two weeks before the mice were inoculated with murine triple negative breast tumor 4T1 in the fourth left mammary fat pad. […] The same experimental model was treated with carvedilol or R-carvedilol, in combination with the anti-PD-1 therapy.

JB6 [8] = assay: EGF-induced JB6 transformation; assay type: cell-based, mouse
[9] = oral 1.6 mg/kg, mice; cited from earlier work
[10] = R-carvedilol alone, healthy human volunteers; cited from earlier work
[11] = Plasma concentration in mice given drug in drinking water; assay type: in vivo; settings: 178 μg/mL in drinking water (32 mg/kg/day), 2 weeks, 95% CI in brackets
[12] = In vitro penetration and skin retention, Franz diffusion cells and porcine ear skin; assay type: in vitro ADME; settings: Franz diffusion cells, porcine ear skin; free drug in water or PEG 400
Description: Thus, topical route has been investigated as a major approach in the application of R-carvedilol for clinical skin cancer prevention. In order to prepare for clinical studies, we prepared three types of transfersome-based formulation for R-carvedilol using different amount of phospholipid (soy phosphatidylcholine, SPC) or edge activator (tween-80). The particle sizes, zeta potential, encapsulation efficiency and stability for these transfersomes were very similar to those of T-CAR. […] This confirms that nano-transfersomes provide a promising delivery system for both carvedilol and R-carvedilol. Thus, this selected transfersomal formulation for R-carvedilol, named “T-RCAR”, will be further characterized in preclinical model systems and examined in clinical trials in the future.

[13] = tested on: UV induced skin damage and inflammation; assay: Acute UV induced skin damage and inflammation model; assay type: in vivo, mouse; settings: topical 0.1, 1 or 10 μM in acetone immediately after single UV 300 mJ/cm^2
Procedure: In an acute UV induced skin damage and inflammation model induced with a single dose of UV (300 mJ/cm^2), topical treatment with R-carvedilol (0.1, 1 or 10 μM in acetone as a vehicle), applied immediately after the UV, attenuated mouse skin edema and reduced epidermal thickening, Ki-67 staining, COX-2 protein, IL-6 and IL-10 mRNA levels.

[14] = high dose 20 mg/kg drinking water
[15] = low dose 3.2 mg/kg drinking water
[16] = oral 20 mg/kg once a day for 7 days

permeation [4]: 1.6 ± 0.25 µg
permeation ([4]; pH 7.4): 0.430 /−0.07 μg
SMILES: COc1ccccc1OCCNCC(O)COc1cccc2[nH]c3ccccc3c12 (racemic) [carvedilol]
potency in preventing EGF-induced neoplastic transformation of mouse epidermal cells (JB6 [1]): highest potency
tumor incidence (B(a)P-induced lung tumor; [14]): 89%
tumor incidence (B(a)P-induced lung tumor; [15]): 50%
tumor multiplicity (B(a)P-induced lung tumor; lower dose 3.2 mg/kg drinking water): significantly attenuated
tumor inhibition (total tumor volume) (B16-F10 tumor; 10 μM, day 14, two tumors per mouse, male mice): trend of tumor inhibition
tumor inhibition (total tumor volume) (B16-F10 tumor; free drug in acetone 100 μM (CAR H), day 14): less effective
mean systolic blood pressure ([2]; mouse, in vivo): statistically reduced mean systolic blood pressure
delay in tumor formation compared to UV only controls [3]: 3 week
UV-induced CHS suppression [5]: reversed UV-induced suppression of CHS
B(a)P-induced expression of COX-2 in lung (IHC) [6, 16]: attenuated
plasma LDH levels [6, 16]: significantly attenuated
plasma MDA levels (LPO) [6, 16]: significantly attenuated
B(a)P-induced lung morphological changes (histology) ([6]; oral 20 mg/kg once a day for 7 days, H&E): reduction in these morphological changes
bioavailability [7]: 24%
tumor growth (4T1): significantly reduced
efficacy in combination with anti-PD-1 therapy (4T1): enhanced the efficacy of anti-PD-1 monotherapy

SMILES: COc1ccccc1OCCNC[C@@H](O)COc1cccc2[nH]c3ccccc3c12 [R-carvedilol]
inhibitory effects on EGF-induced JB6 transformation (JB6 [8]): nearly identical inhibitory effects
tumor inhibition (B(a)P-induced lung tumor; 20 and 3.2 mg/kg drinking water): same trend of tumor inhibition as carvedilol
tumor incidence (B(a)P-induced lung tumor; [14]): 67%
tumor incidence (B(a)P-induced lung tumor; [15]): 70%
heart rate or blood pressure [9]: did not alter heart rate or blood pressure
mean systolic blood pressure ([2]; drinking water, 2 weeks, male SKH-1 mice): did not alter blood pressure
skin tumor development ([3]; topical 10 μM in acetone 30 min before UV): strongly inhibited skin tumor development
delay in tumor formation compared to UV only controls [3]: 5 week
skin permeation ([4]; control formulation: PBS pH 7.4 with 40% v/v PEG 400): minimal
UV-induced CHS suppression [5]: reversed UV-induced suppression of CHS; also recorded: significantly reversed UV-induced CHS suppression
adverse effects [10]: without major adverse effects
mean plasma concentration [11]: 25.13 ng/mL
plasma LDH levels [6, 16]: significantly attenuated
plasma MDA levels (LPO) [6, 16]: significantly attenuated
protection against B(a)P-induced histological changes and COX-2 expression [6]: same degree of protection as the racemic carvedilol
skin permeation [12]: very little
skin retention [12]: very little
tumor growth (4T1): significantly reduced
efficacy in combination with anti-PD-1 therapy (4T1): enhanced the efficacy of anti-PD-1 monotherapy
COX-2 protein [13]: reduced
IL-6 mRNA levels [13]: reduced
IL-10 mRNA levels [13]: reduced
Ki-67 staining [13]: reduced
epidermal thickening [13]: reduced
mouse skin edema [13]: attenuated

SMILES: COc1ccccc1OCCNC[C@H](O)COc1cccc2[nH]c3ccccc3c12 [S-carvedilol]
inhibitory effects on EGF-induced JB6 transformation (JB6 [8]): nearly identical inhibitory effects
plasma LDH levels [6, 16]: significantly attenuated
plasma MDA levels (LPO) [6, 16]: significantly attenuated
protection against B(a)P-induced histological changes and COX-2 expression [6]: same degree of protection as the racemic carvedilol

SMILES: COc1cc2ncnc(Nc3ccc(F)c(Cl)c3)c2cc1OCCCN1CCOCC1 [gefitinib]
tumor incidence (B(a)P-induced lung tumor; 400 mg/kg weekly oral gavage, positive control): 70%
